From patent publication US20040091578A1 (priority 2001, published 2004) come the findings set out here.

For assay [1], the target named is T1, NADP-Malate Dehydrogenase (Zea mays, UniProt P15719).
T1 construct: were purified from leaves of corn; from tissue; host or cells: corn leaves
Briefly: Activation of chloroplast NADP-malate dehydrogenase by thioredoxin-reduced proteins. The format is biochemical, corn. The note with it: 20 μg protein with DTT-reduced thioredoxin h. How it is done: (§1) The NADP-MDH, FBPase, NTR and Thioredoxin h assay methods were according to Florencio, F. J. et al. (1988), Arch. Biochem. Biophys. 266:496-507 with slight modifications as indicated. For enzyme activation assays, the preincubation time was 20 min unless specified otherwise.
In one study 20 mM β-mercaptoethanol (β-MET) was used instead of DTT. Following preincubation, NADP-MDH was assayed spectrophoto-metrically.
(§2) The Wada et al., 1981 protocol was used for assaying NADP-malate dehydrogenase and fructose 1,6 bisphosphatase in the presence of thioredoxin and 2S protein. Assays were conducted under conditions in which the amount of added thioredoxin was sufficient to reduce the castor 2S protein but insufficient to activate the target enzyme appreciably. All assays were at 25° C. Unless otherwise indicated, the thioredoxin and NTR used were from E. coli. The 2S protein was monitored during purification by mBBr/SDS-polyacrylamide gel electrophoresis following its reduction by dithiothreitol and E. coli thioredoxin (Crawford et al., 1989; Kobrehel et al., 1991).

Assay [2] concerns the target T2, glutaredoxin (Escherichia coli, UniProt P68688).
T2 sequence (P68688 1-85): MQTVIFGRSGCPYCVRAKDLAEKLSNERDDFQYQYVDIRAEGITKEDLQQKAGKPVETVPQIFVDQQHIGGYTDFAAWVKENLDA
The assay can be described thus: Reduction by glutaredoxin, mBBr/SDS-PAGE with densitometric scanning. The format is biochemical. How it is done: Direct reduction of the proteins under study was determined by a modification of the method of Crawford et al. (Crawford, N. A. et al. (1989), Arch. Biochem. Biophys. 271:223-239). The reaction was carried out in 100 mM potassium phosphate buffer, pH 7.1, containing 10 mM EDTA and 16% glycerol in a final volume of 0.1 ml. As indicated, 0.7 μg (0.1 μM) NTR and 1 μg (0.8 μM) thioredoxin (both routinely from E. coli were added to 70 μl of the buffer solution containing 1 mM NADPH and 10 μg (2 to 17 μM) of target protein. When thioredoxin was reduced by dithiothreitol (DTT, 0.5 mM), NADPH and NTR were omitted. Assays with reduced glutathione were performed similarly, but at a final concentration of 1 mM. After incubation for 20 min, 100 nmoles of mBBr were added and the reaction was continued for another 15 min. To stop the reaction and derivatize excess mBBr, 10 μl of 10% SDS and 10 μl of 100 mM β-mercaptoethanol were added and the samples were then applied to the gels. […]
This ability was tested, using glutaredoxin from E. coli and the seed proteins currently under study. Reduction activity was monitored by the mBBr/SDS polyacrylamide gel electrophoresis procedure coupled with densitometric scanning.

In assay [3] the target is T3, Fructose Bisphosphatase (Spinacia oleracea, UniProt P22418).
T3 construct: purified from leaves of corn (Jacquot, J.-P. et al. (1981), Plant Physiol. 68:300-304) and spinach; from tissue; host or cells: spinach leaves
T3 sequence (P22418 58-415): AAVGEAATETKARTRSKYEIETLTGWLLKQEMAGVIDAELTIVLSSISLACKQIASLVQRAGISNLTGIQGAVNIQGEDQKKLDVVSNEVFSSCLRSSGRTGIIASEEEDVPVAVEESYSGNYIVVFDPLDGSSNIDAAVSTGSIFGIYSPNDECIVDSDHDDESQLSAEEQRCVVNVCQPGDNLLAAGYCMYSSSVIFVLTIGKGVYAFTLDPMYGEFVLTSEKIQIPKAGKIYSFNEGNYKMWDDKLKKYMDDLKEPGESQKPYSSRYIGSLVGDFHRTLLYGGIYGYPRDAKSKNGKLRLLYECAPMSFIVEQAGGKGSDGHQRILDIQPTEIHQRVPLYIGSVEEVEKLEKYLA
Briefly: Activation of chloroplast fructose bisphosphatase by thioredoxin-reduced proteins. The following applies: 20 μg protein, 1 μg E. coli thioredoxin, DTT; corrected for thioredoxin alone. The class given is biochemical, spinach. The protocol: as §1, §2

T1 sequence (P15719 41-432): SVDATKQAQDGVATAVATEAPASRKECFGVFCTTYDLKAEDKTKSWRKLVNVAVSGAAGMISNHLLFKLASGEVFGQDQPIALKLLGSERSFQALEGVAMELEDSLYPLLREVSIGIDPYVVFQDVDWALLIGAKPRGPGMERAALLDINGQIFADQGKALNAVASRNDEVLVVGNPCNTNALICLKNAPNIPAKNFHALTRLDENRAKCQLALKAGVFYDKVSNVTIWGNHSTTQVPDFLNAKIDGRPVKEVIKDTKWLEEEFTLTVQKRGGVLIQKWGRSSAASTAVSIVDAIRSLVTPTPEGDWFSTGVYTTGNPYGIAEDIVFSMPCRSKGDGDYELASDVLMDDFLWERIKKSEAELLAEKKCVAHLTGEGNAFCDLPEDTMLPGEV

In the case of Aprotinin [Bovine lung (Aprotinin)], the “ACTIVITY, NADP-MDH” value in assay [1] was “Trace”. The “percentage reduction by glutaredoxin relative to E. coli thioredoxin” value in assay [2] was “not affected”. Besides, the “ACTIVITY, FBPase” value in assay [3] came out at 2 nkat/mg.
